The source of these data is ChEMBL document CHEMBL1201862, “PubChem BioAssay data set” (2004).

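Briefly, cells in 96-well plates were exposed to five compound concentrations for 48 h, and endpoints were estimated by linear interpolation. GI50 is the concentration that inhibits growth by half.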 The source made the active and inactive calls. Rule as the data show it: active = GI50 up to about 1.1 µM and inactive = higher.

Among the test systems are HL-60; CAKI-1; ACHN; KM12; TK-10; SR; DMS-273; SF-539; HT-29; Malme-3M; LOX IMVI; SF-295; IGROV-1; A549; SNB-78; U-251; MCF7; PC-3; T47D; NCI/ADR-RES.
Holding throughout (assay): DTP human tumour cell line panel, 48 h

Turning to `CCOC(=O)c1c2ccc(/C=C/c3ccccc3)ccc-2c(C(=O)OCC)c1N`, the GI50 (usually the concentration at which growth is held to half of that of the control) in the experiment with HL-60 is > 100 µM (inactive); with CAKI-1, > 100 µM (inactive); with ACHN, > 100 µM (inactive); in the experiment with KM12, 54.6 µM (inactive); in the experiment on TK-10 it was > 100 µM (inactive); in the experiment with SR, 4.2 µM (inactive). Further, the GI50 in the experiment with DMS-273 is > 100 µM (inactive); in the experiment with SF-539, > 100 µM (inactive); with HT-29 it was 95.3 µM (inactive); with Malme-3M, > 100 µM (inactive); in the experiment on LOX IMVI, > 100 µM (inactive); with SF-295, > 100 µM (inactive). Also, the GI50 in the experiment on IGROV-1 and in the experiment with A549 was > 100 µM (inactive) throughout.

In the case of `CC(=O)NNc1nc(C)c(C(=O)NNC(=O)C(=O)Nc2c(Cl)cc([N+](=O)[O-])cc2Cl)s1`, the GI50 was 28.2 µM (inactive) with HL-60; 31.9 µM (inactive) in the experiment on SNB-78; 31.8 µM (inactive) in the experiment on ACHN; 40 µM (inactive) with KM12; 41.4 µM (inactive) in the experiment with TK-10; 30.5 µM (inactive) in the experiment on SR. The GI50 is 32.6 µM (inactive) with DMS-273; 24.2 µM (inactive) in the experiment on SF-539; 37.8 µM (inactive) in the experiment with HT-29; 36.1 µM (inactive) with Malme-3M; 25.6 µM (inactive) in the experiment on LOX IMVI; 34.8 µM (inactive) with SF-295. Further, the GI50 in the experiment with IGROV-1 was 49.3 µM (inactive); with A549 it was 31.6 µM (inactive); with U-251 it was > 100 µM (inactive).

On to `CSc1nc(SC)c2c(C#N)n[nH]c2n1`, for which the GI50 in the experiment with CAKI-1 was > 100 µM (inactive); with SNB-78, > 100 µM (inactive); in the experiment on ACHN, > 100 µM (inactive); with KM12, > 100 µM (inactive); in the experiment on TK-10 it was 49.4 µM (inactive); in the experiment on SR, > 100 µM (inactive). For the same compound, the GI50 in the experiment on DMS-273, in the experiment on SF-539, with HT-29, in the experiment on Malme-3M, in the experiment with LOX IMVI and in the experiment with SF-295 was > 100 µM (inactive) in each case. Besides, the GI50 with IGROV-1, in the experiment on A549 and in the experiment with U-251 was > 100 µM (inactive) in each case.

With `CC1(OCc2ccccc2)C(=O)N2C1NCC2(C)C` (stereo not drawn), the GI50 in the experiment on HL-60, in the experiment on ACHN, with TK-10, in the experiment with SR, in the experiment with DMS-273 and with SF-539 was > 100 µM (inactive) in each case. In addition, the GI50 in the experiment on HT-29, in the experiment on Malme-3M, in the experiment on LOX IMVI, in the experiment with SF-295, in the experiment with IGROV-1 and in the experiment on A549 was > 100 µM (inactive) each time. Moreover, the GI50 in the experiment with U-251 is > 100 µM (inactive).

`Cc1cc(N(CCC#N)CCC#N)ccc1/C=C\C(=O)Nc1ccccc1`: the GI50 was 26 µM (inactive) in the experiment with HL-60; > 100 µM (inactive) with CAKI-1; 4.43 µM (inactive) in the experiment with ACHN; 97.5 µM (inactive) in the experiment on KM12; > 100 µM (inactive) in the experiment with TK-10; 59.2 µM (inactive) with DMS-273. The GI50 with SF-539 was 76.7 µM (inactive); with HT-29, 5.92 µM (inactive); in the experiment with Malme-3M, > 100 µM (inactive); with LOX IMVI, 1.26 µM (inactive); in the experiment on SF-295, 86.1 µM (inactive); in the experiment with IGROV-1, > 100 µM (inactive). Besides, the GI50 in the experiment with A549 and with U-251 was > 100 µM (inactive) throughout.

Turning to `Cc1cc(C)nc(NS(=O)(=O)c2ccc(NC(=O)c3ccc(Cl)c4c(Nc5ccc(S(=O)(=O)Nc6cc(C)on6)cc5)c5ccccc5nc34)cc2)n1`, the GI50 in the experiment on HL-60 was 8.95 µM (inactive); in the experiment on CAKI-1, 15.7 µM (inactive); in the experiment on SNB-78 it was 13.9 µM (inactive); in the experiment with ACHN, 18.9 µM (inactive); with KM12, 18.4 µM (inactive); in the experiment with TK-10 it was 18.3 µM (inactive). The GI50 with DMS-273 was 17.4 µM (inactive); with SF-539 it was 18.7 µM (inactive); in the experiment on HT-29, 19.5 µM (inactive); in the experiment on Malme-3M, 20.9 µM (inactive); with LOX IMVI it was 15.8 µM (inactive); with SF-295, 18.2 µM (inactive). For the same compound, the GI50 is 20.1 µM (inactive) with IGROV-1, 19.7 µM (inactive) with A549 and 15.3 µM (inactive) with U-251.

`O=C1C[C@@H]2[C@@H](C=CC23CC3)N1O`: the GI50 with HL-60, with CAKI-1, in the experiment on SNB-78, in the experiment with KM12, in the experiment with TK-10 and with DMS-273 was > 100 µM (inactive) throughout. For the same compound, the GI50 with SF-539, in the experiment with HT-29, in the experiment on Malme-3M, in the experiment on LOX IMVI, in the experiment on SF-295 and in the experiment on IGROV-1 was > 100 µM (inactive) in each case. Further, the GI50 in the experiment with A549 and in the experiment on U-251 was > 100 µM (inactive) throughout.

Regarding `CC(=O)O[C@@]12CO[C@@H]1C[C@@H](O)[C@@]1(C)C(=O)[C@H](O)C3=C(C)[C@@H](OC(=O)[C@H](O)[C@@H](NC(=O)c4ccccc4)c4ccccc4)C[C@@](O)([C@@H](OC(=O)c4ccccc4)C12)C3(C)C` (stereo partly drawn), the GI50 in the experiment on MCF7 is < 0.01 µM (active); with PC-3, 0.016 µM (active); in the experiment with HL-60, < 0.01 µM (active); in the experiment on CAKI-1, 1.82 µM (inactive); in the experiment on ACHN, 2.77 µM (inactive); with KM12 it was < 0.01 µM (active). The GI50 in the experiment on TK-10 was 0.705 µM (active); in the experiment on SR, 0.0438 µM (active); in the experiment with DMS-273 it was < 0.01 µM (active); with SF-539, < 0.0114 µM (active); in the experiment with HT-29 it was < 0.01 µM (active); in the experiment with T47D, 0.0272 µM (active). Also, the GI50 with LOX IMVI is < 0.0303 µM (active); in the experiment on SF-295, 0.268 µM (active); in the experiment with NCI/ADR-RES, 20.8 µM (inactive); in the experiment on IGROV-1 it was 0.0218 µM (active); in the experiment on A549 it was 0.083 µM (active); in the experiment on U-251, 0.141 µM (active).

For `O=C(NCCCCCCNC(=O)NC1OCC(O)C(O)C1O)NC1OCC(O)C(O)C1O` (stereo not drawn), the GI50 in the experiment with HL-60, in the experiment on CAKI-1, with SNB-78, with ACHN, in the experiment on KM12 and in the experiment on TK-10 was > 100 µM (inactive) throughout. The GI50 with SR, with SF-539, in the experiment on HT-29, in the experiment on Malme-3M, in the experiment on LOX IMVI and with SF-295 was > 100 µM (inactive) throughout. Also, the GI50 in the experiment on IGROV-1, in the experiment with A549 and in the experiment with U-251 was > 100 µM (inactive) throughout.

For `O=c1[nH]c(=O)n(C2CC(O)C(CO)O2)cc1OS(=O)(=O)C(F)(F)F` (stereo not drawn), the GI50 with HL-60, with CAKI-1, in the experiment with ACHN, in the experiment with KM12, in the experiment on TK-10 and in the experiment with DMS-273 was > 100 µM (inactive) in each case. Further, the GI50 in the experiment with SF-539, with HT-29, in the experiment on Malme-3M, with LOX IMVI, in the experiment with SF-295 and in the experiment with IGROV-1 was > 100 µM (inactive) each time. Besides, the GI50 in the experiment with A549 and in the experiment on U-251 was > 100 µM (inactive) throughout.

For the compound `COc1ccc(/C=C2\N=C(c3ccccc3)N(Nc3nnc(NN4C(=O)/C(=C/c5ccc(OC)cc5)N=C4c4ccccc4)c4ccccc34)C2=O)cc1`, the GI50 is 30 µM (inactive) with HL-60; > 100 µM (inactive) in the experiment with SNB-78; > 100 µM (inactive) in the experiment on ACHN; 17.2 µM (inactive) in the experiment on KM12; 26.6 µM (inactive) with SR; 41.3 µM (inactive) in the experiment with DMS-273. Also, the GI50 with SF-539 was 70.6 µM (inactive); in the experiment with HT-29, 57.5 µM (inactive); in the experiment on LOX IMVI, 20.7 µM (inactive); in the experiment with SF-295, > 100 µM (inactive); with IGROV-1, > 100 µM (inactive); in the experiment on A549, > 100 µM (inactive). For the same compound, the GI50 with U-251 was 94.8 µM (inactive).

On to `N#CC1=C(N)N(c2ccccc2)C(c2ccccc2)C1(C#N)C#N` (stereo not drawn), for which the GI50 in the experiment on MCF7 was 14.8 µM (inactive); in the experiment on PC-3, 17.7 µM (inactive); with HL-60, 17 µM (inactive); in the experiment with CAKI-1 it was 20.9 µM (inactive); in the experiment on ACHN, 18.1 µM (inactive); in the experiment with KM12, 14.5 µM (inactive). Besides, the GI50 was 16.5 µM (inactive) in the experiment with TK-10; 17.1 µM (inactive) in the experiment with SR; 14.7 µM (inactive) in the experiment on SF-539; 15.7 µM (inactive) with HT-29; 17.6 µM (inactive) in the experiment with Malme-3M; 10.4 µM (inactive) with T47D. For the same compound, the GI50 in the experiment on LOX IMVI was 16.6 µM (inactive); in the experiment on SF-295 it was 18.4 µM (inactive); with NCI/ADR-RES it was 20.3 µM (inactive); in the experiment with IGROV-1 it was 15.7 µM (inactive); with A549, 17.8 µM (inactive); in the experiment on U-251, 17.1 µM (inactive).

On to `CC(C)c1cc(C(C)C)c(S(=O)(=O)NN)c(C(C)C)c1`, for which the GI50 with CAKI-1, in the experiment with SNB-78, in the experiment with ACHN, with KM12, with TK-10 and in the experiment on SR was > 100 µM (inactive) throughout. The GI50 with DMS-273 was > 100 µM (inactive); in the experiment on SF-539, > 100 µM (inactive); in the experiment on HT-29 it was > 100 µM (inactive); in the experiment on Malme-3M, > 100 µM (inactive); in the experiment on LOX IMVI it was 42.1 µM (inactive); in the experiment on SF-295, > 100 µM (inactive). In addition, the GI50 in the experiment on IGROV-1, in the experiment with A549 and with U-251 was > 100 µM (inactive) throughout.
